# Patent US6472393B1, “Serine protease inhibitors” (Genentech, Inc., priority 1999, dated 2002)
# What was measured:
# Format in all cases: biochemical
# [1] = target: T1, Tissue Factor/factor VIIa (recombinant human factor VIIa, soluble Tissue Factor (1-219)) (Homo sapiens, UniProt P08709); test: Tissue Factor/Factor VIIa antagonist assay (Ki, chromogenic substrate Chromozym-tPA); settings: read-out: Ki(TFVIIa)
# T1 construct: recombinant human factor VIIa (NB #25942-16); NB #25942-16
# Method: Tissue Factor/Factor VIIa Antagonist Assay
# This procedure can be used to determine the constant of inhibition (Ki) for a sample compound of the invention.
# 1. Prepare a solution of 2 μg/mL (90 nM) tissue factor and 1.5 μg/mL (30 nM) factor VIIa in assay buffer with CaCl2.
# 2. Incubate for 15 minutes at room temperature.
# 3. Add 50 μL sample to each well.
# 4. Add 50 μL tissue factor/factor VIIa solution to each well.
# 5. Incubate for 15 minutes at room temperature with gentle agitation.
# 6. Add 50 μL substrate to each well.
# 7. Agitate plate for 20-25 sec.
# 8. Monitor absorbance at 405 nm every 10 sec for a total of 5 minutes at room temperature.
# 9. Calculate Vmax over 10 points.
# (§1) Assay—Enzyme, Substrate and Final Concentrations
# [2] = target: T2, human Plasma Kallikrein (Homo sapiens, UniProt P03952); test: Plasma Kallikrein assay (Ki, chromogenic substrate S-2302)
# T2 construct: Factor Xa, Thrombin, and Plasma Kallikrein Assays
# Method: (§2) Factor Xa, Thrombin, and Plasma Kallikrein Assays
# (§3) These procedures can be used to determine the constant of inhibition (Ki) for a sample compound of the invention.
# (§4) 1. Add 50 μL sample to each well.
# (§5) 2. Add 50 μL appropriately diluted coagulation factor to each well.
# (§6) 3. Incubate for 5 minutes at room temperature with gentle agitation.
# (§7) 4. Add 50 μL appropriately diluted substrate to each well.
# (§8) 5. Agitate plate for 20-25 sec.
# (§9) 6. Monitor absorbance at 405 nm every 10 sec for a total of 5 minutes at room temperature.
# (§10) 7. Calculate Vmax over 10 points.
# as §1
# [3] = target: T3, human Factor Xa (Homo sapiens, UniProt P00742); test: Factor Xa assay (Ki, chromogenic substrate S-2222)
# T3 construct: This complex converts factor X to Xa
# Method: as §2, §3, §4, §5, §6, §7, §8, §9, §10, §1
# [4] = target: T4, human Thrombin (Homo sapiens, UniProt P00734); test: Thrombin assay (Ki, chromogenic substrate S-2366); settings: read-out: Ki(IIa)
# T4 construct: rapidly converts prothrombin to thrombin
# Method: as §2, §3, §4, §5, §6, §7, §8, §9, §10, §1
# T1 sequence (P08709 213-466 limits assumed): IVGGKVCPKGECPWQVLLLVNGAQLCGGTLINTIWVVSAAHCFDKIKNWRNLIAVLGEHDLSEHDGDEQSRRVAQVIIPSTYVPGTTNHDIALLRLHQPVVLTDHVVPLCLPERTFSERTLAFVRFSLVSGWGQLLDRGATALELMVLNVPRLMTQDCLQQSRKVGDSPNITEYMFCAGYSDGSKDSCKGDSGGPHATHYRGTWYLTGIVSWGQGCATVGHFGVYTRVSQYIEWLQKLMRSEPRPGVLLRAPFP
# T1 sequence (P08709 61-212 limits assumed): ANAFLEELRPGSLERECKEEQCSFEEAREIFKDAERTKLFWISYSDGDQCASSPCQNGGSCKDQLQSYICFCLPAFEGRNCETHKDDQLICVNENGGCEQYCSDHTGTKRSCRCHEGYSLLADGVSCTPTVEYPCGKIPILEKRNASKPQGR
# T1 sequence (P13726 33-251 partner limits assumed): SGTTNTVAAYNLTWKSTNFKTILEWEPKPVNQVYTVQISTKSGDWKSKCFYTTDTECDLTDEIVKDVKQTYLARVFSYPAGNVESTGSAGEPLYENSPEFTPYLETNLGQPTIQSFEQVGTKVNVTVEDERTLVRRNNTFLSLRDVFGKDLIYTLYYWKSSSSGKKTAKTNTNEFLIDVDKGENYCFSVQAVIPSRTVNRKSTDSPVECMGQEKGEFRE
# T3 sequence (P00742 235-488 limits assumed): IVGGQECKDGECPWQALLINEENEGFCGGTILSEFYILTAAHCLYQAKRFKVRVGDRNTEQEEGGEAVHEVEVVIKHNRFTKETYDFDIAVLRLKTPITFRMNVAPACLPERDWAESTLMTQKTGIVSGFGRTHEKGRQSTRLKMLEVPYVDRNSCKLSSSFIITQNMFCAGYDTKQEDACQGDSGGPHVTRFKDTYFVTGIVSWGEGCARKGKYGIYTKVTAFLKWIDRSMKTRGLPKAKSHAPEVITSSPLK
# T3 sequence (P00742 41-179 limits assumed): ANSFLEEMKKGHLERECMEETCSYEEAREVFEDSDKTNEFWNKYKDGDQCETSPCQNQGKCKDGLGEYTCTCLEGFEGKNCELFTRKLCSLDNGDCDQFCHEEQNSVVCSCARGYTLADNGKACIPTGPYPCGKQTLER
# T2 sequence (P03952 391-638 limits assumed): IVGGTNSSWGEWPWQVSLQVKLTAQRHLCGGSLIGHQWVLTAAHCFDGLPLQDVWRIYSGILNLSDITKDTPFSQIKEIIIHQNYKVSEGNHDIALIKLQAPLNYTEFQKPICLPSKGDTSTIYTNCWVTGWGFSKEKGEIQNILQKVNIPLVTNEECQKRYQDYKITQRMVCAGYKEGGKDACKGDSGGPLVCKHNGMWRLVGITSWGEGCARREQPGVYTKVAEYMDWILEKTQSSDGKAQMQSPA
# T2 sequence (P03952 20-390 limits assumed): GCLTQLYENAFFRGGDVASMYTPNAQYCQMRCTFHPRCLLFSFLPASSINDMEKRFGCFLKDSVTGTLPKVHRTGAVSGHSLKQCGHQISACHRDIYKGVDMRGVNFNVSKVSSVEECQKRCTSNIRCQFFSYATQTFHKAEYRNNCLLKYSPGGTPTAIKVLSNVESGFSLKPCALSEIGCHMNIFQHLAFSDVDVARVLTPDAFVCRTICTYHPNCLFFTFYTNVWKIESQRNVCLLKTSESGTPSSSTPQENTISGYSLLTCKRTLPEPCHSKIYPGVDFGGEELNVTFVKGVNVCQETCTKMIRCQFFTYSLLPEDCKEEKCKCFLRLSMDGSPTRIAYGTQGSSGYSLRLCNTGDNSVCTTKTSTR
Ki [1] [nM],Ki [2] [nM],Ki [3] [nM],Ki [4] [nM],Structure (SMILES)
4,,,,CCCS(=O)(=O)NCC(Nc1ccc(C(=N)N)cc1)c1cc(OCC)c(OCc2ccccc2)cc1NS(C)(=O)=O (stereo not shown) [4-[1-(4-Benzyloxy-5-ethoxy-2-methanesulfonylamino-phenyl)-2-(propane-1-sulfonylamino)-ethylamino]benzamidine]
,1,,,CCCS(=O)(=O)NCC(Nc1ccc(C(=N)N)cc1)c1cc(OCC)c(OC(C)C)cc1NS(C)(=O)=O (stereo not shown)
,,140,1,CCCS(=O)(=O)NCC(Nc1ccc(C(=N)N)cc1)c1ccc(OC(CCl)c2ccccc2)c(OC)c1 (stereo not shown) [4-{2-propanesulfonylamino-1-[4-(2-chloro-1-phenyl-ethoxy)-3-methoxy-phenyl]-ethylamino}-benzamidine]
,,,1,COc1cc(C(CNS(=O)(=O)c2ccccc2)Nc2ccc(C(=N)N)cc2)ccc1OC(CCl)c1ccccc1 (stereo not shown) [4-{2-benzenesulfonylamino-1-[4-(2-chloro-1-phenyl-ethoxy)-3-methoxy-phenyl]-ethylamino}-benzamidine]
,,,16,COc1cc(C(CNS(=O)(=O)c2cccs2)Nc2ccc(C(=N)N)cc2)ccc1OCc1ccccc1 (stereo not shown) [4-[1-(4-Benzyloxy-3-methoxy-phenyl)-2-(thiophene-2-sulfonylamino)-ethylamino]-benzamidine]
3,,898,113,"CCOc1cc(C(Nc2ccc(C(=N)N)cc2)C(=O)NS(=O)(=O)c2ccccc2)ccc1OC(C)C (stereo not shown) [4-{2-benzenesulfonylamino-1-[4-isopropoxy,5-ethoxy)-phenyl]-2-oxo-ethylamino}benzamidine]"
,,624,,"CCCCS(=O)(=O)NC(=O)C(Nc1ccc(C(=N)N)cc1)c1ccc(OC(C)C)c(OCC)c1 (stereo not shown) [4-{2-butylsulfonylamino-1-[4-isopropoxy,5-ethoxy)-phenyl]-2-oxo-ethylamino}benzamidine]"
,11,565,,"CCOc1cc(C(Nc2ccc(C(=N)N)cc2)C(=O)NS(=O)(=O)CC)ccc1OC(C)C (stereo not shown) [4-{2-ethylsulfonylamino-1-[4-isopropoxy,5-ethoxy)-phenyl]-2-oxo-ethylamino}benzamidine]"
,1,,,CCCS(=O)(=O)NCC(Nc1ccc(C(=N)N)cc1)c1cc(OCC)c(OCC(C)C)cc1NS(=O)(=O)CCC (stereo not shown)
7,,,,CCOc1cc(OCC)cc(C(Nc2ccc(C(=N)N)cc2)C(=O)NS(=O)(=O)c2ccccc2)c1 (stereo not shown)
5,2,,,CCOc1ccc(C(Nc2ccc(C(=N)N)cc2)C(=O)NS(=O)(=O)c2ccccc2)cc1OCC (stereo not shown)
